Measured values reported in patent publication US10246465B2 (priority 2014, dated 2019).

Molecular target: human σ1 receptor (Homo sapiens, UniProt Q99720)
Assay: biochemical
Format: binding
Parameters: μ and σ1 dual binding: key to the marks not given beside the values
Conditions: one combined class from Ki at human σ1 receptor (A1) and Ki at human μ-opioid receptor (A2)
Description: Human σ1 Receptor Radioligand Assay
The assay was carried out with 7 μg of membrane suspension, 5 nM of [^3H](+)-pentazocine in either absence or presence of either buffer or 10 μM Haloperidol for total and non-specific binding, respectively. Binding buffer contained Tris-HCl 50 mM at pH 8. Plates were incubated at 37° C. for 120 minutes. After the incubation period, the reaction mix was then transferred to MultiScreen HTS, FC plates (Millipore), filtered and plates were washed 3 times with ice-cold 10 mM Tris-HCL (pH7.4). Filters were dried and counted at approximately 40% efficiency in a MicroBeta scintillation counter (Perkin-Elmer) using EcoScint liquid scintillation cocktail

Chain of human σ1 receptor (Q99720 whole entry): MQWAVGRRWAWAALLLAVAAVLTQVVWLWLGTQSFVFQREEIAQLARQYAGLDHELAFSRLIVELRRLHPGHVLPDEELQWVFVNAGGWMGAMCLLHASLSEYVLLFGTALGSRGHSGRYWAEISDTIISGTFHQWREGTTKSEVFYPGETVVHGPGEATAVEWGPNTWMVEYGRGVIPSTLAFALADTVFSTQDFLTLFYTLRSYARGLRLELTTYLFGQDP

Structure (SMILES)	μ and σ1 dual binding	Ki (read-out: μ and σ1 dual binding) [nM]
CCN1CC2(CCN(CCc3ncccc3F)CC2)OC2(CC2)C1=O.Cl [Example 3, 12-ethyl-8-[2-(3-fluoropyridin-2-yl)ethyl]-4-oxa-8,12-diazadispiro[2.1.5.3]tridecan-13-one hydrochloride]	++	
CCN1CC2(CCN(CCc3cc(C(F)(F)F)ccn3)CC2)OC2(CC2)C1=O.Cl [Example 4, 12-ethyl-8-{2-[4-(trifluoromethyl)pyridin-2-yl]ethyl}-4-oxa-8,12-diazadispiro[2.1.5.3]tridecan-13-one hydrochloride]	++	
CCN1CC2(CCN(CCc3ncccc3Cl)CC2)OC2(CC2)C1=O.Cl [Example 5, 8-[2-(3-chloropyridin-2-yl)ethyl]-12-ethyl-4-oxa-8,12-diazadispiro[2.1.5.3]tridecan-13-one hydrochloride]	++	
CCN1CC2(CCN(CCc3cccc(N)n3)CC2)OC2(CC2)C1=O [Example 6, 8-[2-(6-aminopyridin-2-yl)ethyl]-12-ethyl-4-oxa-8,12-diazadispiro[2.1.5.3]tridecan-13-one]	++	
CCN1CC2(CCN(CCc3ccncc3)CC2)OC2(CC2)C1=O [Example 23, 12-ethyl-8-[2-(pyridin-4-yl)ethyl]-4-oxa-8,12-diazadispiro[2.1.5.3]tridecan-13-one]	++	
CCN1CC2(CCN(CCc3cccc(C#N)c3)CC2)OC2(CC2)C1=O.Cl [Example 27, 3-(2-{12-ethyl-13-oxo-4-oxa-8,12-diazadispiro[2.1.5.3]tridecan-8-yl}ethyl)benzonitrile hydrochloride]	++	
CN1CC2(CCN(CCc3ccccc3F)CC2)OC2(CC2)C1=O.Cl [Example 29, 8-[2-fluorophenethyl]-12-methyl-4-oxa-8,12-diazadispiro[2.1.5.3]tridecan-13-one hydrochloride]	++	
C[C@H]1OC2(CCN(CCc3ccccc3OC(F)(F)F)CC2)CN(C)C1=O.Cl [Example 45, (R)-2,4-dimethyl-9-(2-(trifluoromethoxy)phenethyl)-1-oxa-4,9-diazaspiro[5.5]undecan-3-one hydrochloride]	++	
C[C@H]1OC2(CCN(CCc3ccccc3C(F)(F)F)CC2)CN(C)C1=O.Cl [Example 48, (R)-2,4-dimethyl-9-(2-(trifluoromethyl)phenethyl)-1-oxa-4,9-diazaspiro[5.5]undecan-3-one hydrochloride]	++	
CC(C)N1CC2(CCN(CCc3c(F)cccc3F)CC2)O[C@H](C)C1=O.Cl [Example 49, (R)-9-(2,6-difluorophenethyl)-4-isopropyl-2-methyl-1-oxa-4,9-diazaspiro[5.5]undecan-3-one hydrochloride]	++	
CN1CC2(CCN(CCc3ccccc3)CC2)OC(C)(C)C1=O.Cl [Example 54, 2,2,4-trimethyl-9-phenethyl-1-oxa-4,9-diazaspiro[5.5]undecan-3-one hydrochloride]	++	
CCN1CC2(CCN(CCc3cccc(N)c3)CC2)OC2(CC2)C1=O [Example 56, 8-(3-aminophenethyl)-12-ethyl-4-oxa-8,12-diazadispiro[2.1.5.3]tridecan-13-one]		> 500
CCN1CC2(CCN(CCc3cccc(NC(C)=O)c3)CC2)OC2(CC2)C1=O [Example 57, N-[3-(2-{12-ethyl-13-oxo-4-oxa-8,12-diazadispiro[2.1.5.3]tridecan-8-yl}ethyl)phenyl]acetamide]	++	
CCN1CC2(CCN(CCc3cccc(NC(N)=O)c3)CC2)OC2(CC2)C1=O [Example 58, [3-(2-{12-ethyl-13-oxo-4-oxa-8,12-diazadispiro[2.1.5.3]tridecan-8-yl}ethyl)phenyl]urea]	++	
CCN1CC2(CCN(CCc3ccc(C(=O)NC)cc3)CC2)OC2(CC2)C1=O.Cl [Example 59, 4-(2-{12-ethyl-13-oxo-4-oxa-8,12-diazadispiro[2.1.5.3]tridecan-8-yl}ethyl)-N-methylbenzamide hydrochloride]	++	
CCN1CC2(CCN(CCc3ccccc3O)CC2)OC2(CC2)C1=O [Example 60, 12-ethyl-8-(2-hydroxyphenethyl)-4-oxa-8,12-diazadispiro[2.1.5.3]tridecan-13-one]	++	
CCN1CC2(CCN(CCc3ccc(O)cc3)CC2)OC2(CC2)C1=O.Cl [Example 62, 12-ethyl-8-(4-hydroxyphenethyl)-4-oxa-8,12-diazadispiro[2.1.5.3]tridecan-13-one hydrochloride]	++	
C[C@H]1OC2(CCN(CCc3cccc(F)c3F)CC2)CN(C)C1=O [Example 74, (R)-9-(2,3-difluorophenethyl)-2,4-dimethyl-1-oxa-4,9-diazaspiro[5.5]undecan-3-one]	++	
C[C@H]1OC2(CCN(CCc3cc(F)ccc3F)CC2)CN(C)C1=O [Example 81, (R)-9-(2,5-difluorophenethyl)-2,4-dimethyl-1-oxa-4,9-diazaspiro[5.5]undecan-3-one]	++	
CC1(C)OC2(CCN(CCc3cccc(F)c3F)CC2)CN(C2CC2)C1=O [Example 85, 4-cyclopropyl-9-(2,3-difluorophenethyl)-2,2-dimethyl-1-oxa-4,9-diazaspiro[5.5]undecan-3-one]	++	
CCN1CC2(CCN(CCc3cccc(F)c3F)CC2)O[C@H](C)C1=O [Example 87, (R)-9-(2,3-difluorophenethyl)-4-ethyl-2-methyl-1-oxa-4,9-diazaspiro[5.5]undecan-3-one]	++	
CCN1CC2(CCN(CCc3cccc(F)c3F)CC2)OC(C)(C)C1=O [Example 89, 9-(2,3-difluorophenethyl)-4-ethyl-2,2-dimethyl-1-oxa-4,9-diazaspiro[5.5]undecan-3-one]	++	
C[C@H]1OC2(CCN(CCc3cccc(F)c3F)CC2)CN(C2CC2)C1=O [Example 91, (R)-4-cyclopropyl-9-(2,3-difluorophenethyl)-2-methyl-1-oxa-4,9-diazaspiro[5.5]undecan-3-one]	++	
CN1CC2(CCN(CCc3ccccc3)CC2)O[C@H](CCO)C1=O [Example 94, (R)-2-(2-hydroxyethyl)-4-methyl-9-phenethyl-1-oxa-4,9-diazaspiro[5.5]undecan-3-one]	++	
CN1CC2(CCN(CCc3ccccc3)CC2)O[C@H](Cc2ccccc2)C1=O [Example 95, (R)-2-benzyl-4-methyl-9-phenethyl-1-oxa-4,9-diazaspiro[5.5]undecan-3-one]	++	
